Reference: paper PMC4837544, “Differential kinetic profiles and metabolism of primaquine enantiomers by human hepatocytes” (Malaria Journal, 2016)
Read-outs that look alike come from different tables or passages of the source.

Tests used:
[1] = test system: primary human hepatocytes; format: in vitro ADME; settings: for enantiomer from which the metabolite is generated: 20 µM (+)-, (−)- and (±)-PQ; for amount detected: peak areas too minute to profile
Description: (§1) A separate control incubation of PQ and the two enantiomers in the cell-free hepatocyte media was performed to detect any non-enzymatically generated product. Metabolic reactions were halted by the addition of two volumes of ice-cold methanol containing 0.5 µg/mL 6-d3-methoxyprimaquine as an internal standard at predetermined time intervals. This mixture was vortexed and kept at −20 °C for at least 4 h before further analysis. Parallel incubation of substrate-free hepatocytes was performed. At each time point, aliquots were taken for cell viability measurement.
(§2) In preparation for HPLC–MS analysis, samples were centrifuged (10,000g, 10 min) and clear supernatants were dried using a Speedvac. The dried samples were re-suspended in 150 µL methanol, centrifuged and clear supernatants were transferred to HPLC sample vials for analysis.
(§3) The analytical method for simultaneous analysis of primaquine and its metabolites using the Ultra-High Performance Liquid Chromatography-Mass Spectrometry (UHPLC-QToF-MS), as earlier developed and reported was employed in this study. […] Details of the chromatography set-up are published.
Metabolites in the accurate mass data were found using the Metabolynx® software. The data were searched using predicted metabolite mass, mass defects, isotope, and fragmentation patterns. Each sample was subjected to data acquisition in full scan and data-dependent positive MS/MS, targeted MS/MS (ESI positive ionization mode) and high-resolution MS (HRMS) modes using the Waters ACQUITY™ XEVO QTOF Mass Spectrometer (Waters Corporation, Manchester, UK) connected to the UHPLC system via an electrospray ionization (ESI) interface. Metabolites were distinguished from artifacts and unrelated products by the presence of twin peaks with a mass difference of six, arising from the six labels in the 1:1 mixture of 12-C and 13-C-labelled PQ. The Identification of each metabolite was assisted by its HRMS data, which were used to calculate their elemental compositions. The full scan mass data were screened and filtered using Waters MetaboLynx XS software. The qualitative metabolite identification was performed using this software package.

[2] = design: method as in PMID 25637634; settings: cited from earlier work
[3] = design: method as in PMID 25645856; settings: mice, therapeutic doses ref 22; cited from earlier work
[4] = test system: primary human hepatocytes; assay: Hepatocyte viability time course by cell counts in presence and absence of PQ; format: cell-based
Description: Parallel incubation of substrate-free hepatocytes was performed.

[5] = test system: primary human hepatocytes; assay: Substrate depletion / intrinsic clearance of PQ and its enantiomers in cryopreserved human hepatocytes; settings: for substrate depleted: by 2 h; for substrate depleted / λ elimination rate constant / t½ (initial half-life): 20 µM; for substrate depleted / λ elimination rate constant: human hepatocytes 1 million cells/mL; for CLh,b (% hepatic blood flow): human Qh 20.7 mL/min/kg; for λ elimination rate constant: log-linear regression 0–60 min
From the text: (§4) Pooled mixed-gender cryopreserved metabolism-qualified (CYP1A2, 2B6, 2C8, 2C9, 2C19, 2D6, 3A4, UGT2B7, UDP-glucuronosyltransferase) primary human hepatocytes (catalog number 454504) sourced from free donors (who were free of HIV, HBV, HCV and other liver-related diseases) were purchased from Corning Life Sciences (Woburn MA, USA) and stored in liquid nitrogen until use.
(§5) The cryopreserved hepatocytes were thawed and the cells were suspended in recovery medium (Corning Life Sciences). According to the supplier’s instructions, the suspended cells were centrifuged (300g, 5 min), the recovery medium discarded and the cells were re-suspended in the plating medium. Viability of the suspended hepatocytes was computationally determined based on cell counts using a Bio-Rad automated cell counter (Hercules, CA, USA). The cell density was adjusted to approximately 1X10^6 viable cells/mL in the plating media.
as §1, with “PQ, racemic and enantiomers, prepared as a 1:1 mixture of 12-C and 13-C-labelled compounds, were separately incubated at a final concentration of 20 µM in the cell-containing plating media using the 48-well plate at 37 °C under a humidified atmosphere of 95 % air and 5 % CO2 in an Eppendorf incubator (Hauppauge, NY, USA) attached with a shaker set at 75 rpm. A separate” for “A separate”
as §2, §3
(§6) Initial half-life (t^1/2) and elimination rate constants (λ = ln2/t^1/2) of PQ in hepatocyte incubates were calculated by log-linear regression of PQ concentrations profiled against time using data from the sampling points of the 20 µM PQ incubates. The intrinsic clearance in vitro (CLint in vitro) was calculated from λ and the cell density in the respective incubation (number of viable hepatocytes per mL at time zero) and scaled up to the intrinsic clearance in vivo (CLint in vivo) using the human liver mass (25.7 g/kg body mass) and the hepatocellularity (number of hepatocytes per gram of liver = 99 millions cells/g liver): CLint in vitro = λ/cell density. CLint in vivo = CLint in vitro × liver mass × heptocellularity. From CLint in vivo and the hepatic blood flow [Q (20.7 mL/min)/kg body mass], the hepatic metabolic blood clearance (CLh,b) was predicted using the well-stirred model: CLh,b = (CLint in vivo × Q)/(CLint in vivo + Q).
(§7) Since this estimation was for comparisons between enantiomers only, no corrections were made for the free fractions in vitro or in vivo—i.e. they were assumed to be identical.

[6] = as above; settings: both, human; for half-life at 20 µM: hepatocytes, t½ (initial half-life), human hepatocytes
From the text: as §4, §5
as §1, with “PQ, racemic and enantiomers, prepared as a 1:1 mixture of 12-C and 13-C-labelled compounds, were separately incubated at a final concentration of 20 µM in the cell-containing plating media using the 48-well plate at 37 °C under a humidified atmosphere of 95 % air and 5 % CO2 in an Eppendorf incubator (Hauppauge, NY, USA) attached with a shaker set at 75 rpm. A separate” for “A separate”
as §2, §3, §6, §7

[7] = design: method as in PMID 24913163, PMID 25267666; settings: monkeys, higher than therapeutic doses ref 8, 9; cited from earlier work
recombinant human CYP2D6 = test system: recombinant human CYP2D6; design: method as in PMID 25518709; settings: cited from earlier work; for depletion of PQ enantiomers: 2 h incubation with recombinant human CYP2D6 ref 12
[8] = design: method as in PMID 24913163, PMID 25267666; settings: beagle dogs, humanized mouse model and monkeys ref 8, 9; cited from earlier work
[9] = design: method as in PMID 24913163, PMID 25267666; settings: beagle dogs and mouse models ref 8, 9; cited from earlier work
Pneumocystis carinii = test system: Pneumocystis carinii; design: method as in PMID 24913163; settings: mice ref 8; cited from earlier work
malaria = test system: malaria; design: method as in PMID 24913163; settings: suppressive and prophylactic assays, mice ref 8; cited from earlier work
[10] = design: method as in PMID 25267666, PMID 25637634, PMID 23378100; settings: after racemic PQ in mice, monkeys and humans ref 9, 15, 16; cited from earlier work
[11] = Control incubation in cell-free hepatocyte media (non-enzymatic products); format: in vitro ADME
Description: as §1, with “PQ, racemic and enantiomers, prepared as a 1:1 mixture of 12-C and 13-C-labelled compounds, were separately incubated at a final concentration of 20 µM in the cell-containing plating media using the 48-well plate at 37 °C under a humidified atmosphere of 95 % air and 5 % CO2 in an Eppendorf incubator (Hauppauge, NY, USA) attached with a shaker set at 75 rpm. A separate” for “A separate”

[12] = human hepatocytes, computed from λ
[13] = human hepatocytes, computed from λ (ln2/λ)

## COc1cc(N2C(=O)CCC2C)c2ncccc2c1 (stereo not drawn)
[1]
  enantiomer from which the metabolite is generated: preferentially generated from the (−)-PQ

## COc1cc([N+]2=CCCC2C)c2ncccc2c1 (stereo not drawn)
[1]
  enantiomer from which the metabolite is generated: preferentially generated from the (−)-PQ

## COc1cc(NC(C)CCCN)c2ncccc2c1 (racemic) [(±)-PQ, primaquine]
[2]; humans ref 15
  expected peak plasma concentrations: < 2 µM
[3]
  liver concentration relative to plasma: about 20 times
[4]; 20 µM, up to 2 h
  direct hepatocellular toxicity (viable cell counts vs drug-free incubation): absence of PQ-induced direct hepatocellular toxicity
[4]; at the 2 h termination time, drug-free and PQ-containing incubates similar
  hepatocyte viability: 88 % of the starting value
[5]
  substrate depleted: 30%
  CLh,b (% hepatic blood flow): 36 % hepatic blood flow
[6]
  Km: 37 µM
  k el at 20 µM: 9.44e-05 s⁻¹
[6]; computed from λ
  half-life at 20 µM: 2.03 h
[6]; computed from λ (ln2/λ)
  half-life at 20 µM: 2.03 h

## COc1cc(NC(C)CCCN)c2ncccc2c1 (single isomer, unassigned; (-)) [(−)-PQ, (−)-primaquine]
[7]
  liver damage: reversible liver damage
Recombinant human CYP2D6
  depletion of PQ enantiomers: 30%
[5]
  λ elimination rate constant: 0.64 h⁻¹
  substrate depleted: 42%
  CLh,b (% hepatic blood flow): 51 % hepatic blood flow
[5]; [12]
  t½ (initial half-life): 1.08 h
[5]; [13]
  t½ (initial half-life): 1.09 h
[5]; human hepatocytes
  in vitro clearance compared with (+)-PQ: three times faster

## COc1cc(NC(C)CCCN)c2nc(O)ccc2c1 (stereo not drawn) [2-hydroxyprimaquine]
[1]
  enantiomer from which the metabolite is generated: exclusively generated from the (+)-PQ
  amount detected: trace amounts

## COc1cc(NC(C)CCCN)c2nccc(O)c2c1 (stereo not drawn) [4-hydroxyprimaquine]
[1]
  enantiomer from which the metabolite is generated: exclusively generated from the (+)-PQ
  amount detected: trace amounts

## COc1cc(N[C@@H](C)CCCN)c2ncccc2c1 [(+)-PQ, (+)-(S)-primaquine]
Recombinant human CYP2D6
  depletion of PQ enantiomers: 50%
Recombinant human CYP2D6; in vitro with recombinant human CYP2D6 ref 12
  rate of metabolism compared to (−)-PQ: significantly higher
[8]
  methaemoglobinemia: higher methaemoglobinemia than (−)-PQ
[9]
  acute toxicity: higher acute toxicity than (−)-PQ
Pneumocystis carinii
  Pneumocystis carinii pneumonia efficacy compared with (−)-PQ: more active than (−)-PQ
malaria
  anti-malarial activity compared with (−)-PQ: more active than (−)-PQ
[5]
  λ elimination rate constant: 0.19 h⁻¹
  substrate depleted: 16%
  CLh,b (% hepatic blood flow): 24 % hepatic blood flow
[5]; [12]
  t½ (initial half-life): 3.62 h
[5]; [13]
  t½ (initial half-life): 3.62 h
[5]; extrapolated in vivo human hepatic blood clearance, well-stirred liver model
  rate of hepatic clearance of (+)-PQ relative to that of (−)-PQ: 45%
[5]; human hepatocytes
  initial half-life compared with (−)-PQ: more than three times longer

## COc1cc(NC(C)CCC(=O)OC2OC(C(=O)O)C(O)C(O)C2O)c2ncccc2c1 [CPQ glucuronide, Carboxyprimaquine-β-D-glucuronide]
[1]
  enantiomer from which the metabolite is generated: preferentially generated from the (−)-PQ

## COc1cc(NC(C)CCC(=O)O)c2ncccc2c1 (stereo not drawn) [CPQ, carboxyprimaquine]
[2]; human, after racemic primaquine ref 15
  CPQ peak plasma concentration from (−)-PQ relative to from (+)-PQ: 15 times
[10]
  enantiomeric form in plasma: predominantly the (−)-form
[1]
  enantiomer from which the metabolite is generated: preferentially generated from the (−)-PQ
[1]; 2 h incubation
  portion of metabolite generated within 30 min: 75%

## COc1cc(NC(C)CCCNC(=O)OC2OC(C(=O)O)C(O)C(O)C2O)c2ncccc2c1 [N-carbamoyl glucuronide of PQ, (S)-primaquine-N-carbamoyl-β-D-glucuronide]
[1]
  enantiomer from which the metabolite is generated: exclusively formed from (+)-PQ
[1]; listed as carbamoyl glucuronide of PQ
  enantiomer from which the metabolite is generated: exclusively generated from (+)-PQ

## COc1cc(NC(C)CCCO)c2ncccc2c1 (stereo not drawn) [PQ terminal alcohol, primaquine alcohol]
[1]
  enantiomer from which the metabolite is generated: preferentially generated from the (−)-PQ

## COc1cc(NC(C)CCCOC2OC(C(=O)O)C(O)C(O)C2O)c2ncccc2c1 [glucuronide of PQ alcohol, Primaquine alcohol-O-β-D-glucuronide]
[1]
  enantiomer from which the metabolite is generated: preferentially generated from the (−)-PQ

## COc1cc(NC(C)CCCNC2OC(CO)C(O)C(O)C2O)c2ncccc2c1 (stereo not drawn) [glycosylated conjugate of PQ]
[11]
  formation in cell-free media: formed non-enzymatically
[1]
  enantiomer from which the metabolite is generated: preferentially generated by (+)-PQ
[1]; listed as PQ conjugate formed by apparent N-glucosylation
  enantiomer from which the metabolite is generated: preferentially formed with (+)-PQ
[1]; listed as glycosylated PQ
  enantiomer from which the metabolite is generated: preferentially generated from (+)-PQ
[1]; biphasic increase
  time of peak formation: ≤ 30 min
